Data reported in the NIST ThermoML archive (doi:10.1016/j.jct.2015.04.021).
± gives the expanded uncertainty stated by the source.

Test: xn = mol fraction of the nth substance listed
Settings: 101.3 kPa, Liquid, Pycnometric method

Compound | mass density (303.15 K, x1 = 0.75) [kg/m3] | mass density (303.15 K, x1 = 0.8) [kg/m3] | mass density (303.15 K, x1 = 0.833) [kg/m3] | mass density (313.15 K, x1 = 0.75) [kg/m3] | mass density (313.15 K, x1 = 0.8) [kg/m3] | mass density (313.15 K, x1 = 0.833) [kg/m3] | mass density (323.15 K, x1 = 0.75) [kg/m3] | mass density (323.15 K, x1 = 0.8) [kg/m3] | mass density (323.15 K, x1 = 0.833) [kg/m3] | mass density (333.15 K, x1 = 0.75) [kg/m3] | mass density (333.15 K, x1 = 0.8) [kg/m3] | mass density (333.15 K, x1 = 0.833) [kg/m3]
OCc1ccco1 [2-hydroxymethylfuran] + C[N+](C)(C)CCO.[Cl-] | 1131.8 ± 1.3 | 1131.5 ± 1.3 | 1130.9 ± 1.3 | 1125.2 ± 1.3 | 1124.3 ± 1.3 | 1123.8 ± 1.3 | 1118.6 ± 1.3 | 1117.1 ± 1.3 | 1116.6 ± 1.3 | 1112 ± 1.3 | 1109.9 ± 1.3 | 1109.5 ± 1.3
CC(=O)CCC(=O)O [4-oxopentanoic acid] + C[N+](C)(C)CCO.[Cl-] | 1134.6 ± 1.1 | 1134.1 ± 1.1 | 1133.7 ± 1.1 | 1127.6 ± 1.1 | 1127.3 ± 1.1 | 1127 ± 1.1 | 1120.9 ± 1.2 | 1120.4 ± 1.2 | 1120.2 ± 1.2 | 1113.8 ± 1.2 | 1113.1 ± 1.2 | 1113 ± 1.2
